The values that follow come from article PMC7604311, “Caprine Bactenecins as Promising Tools for Developing New Antimicrobial and Antitumor Drugs” (Frontiers in Cellular and Infection Microbiology, 2020).

One series concerns E. coli ML-35p. The series is described as follows: Broth microdilution assay (MIC). Type of series: cell-based, Escherichia coli. As to conditions: 50% MH broth/50% 10 mM Na-P buffer pH 7.4 with 0.1% BSA, 1×10^6 CFU/ml, 20 h, median of 3–6 independent experiments in triplicate. The protocol:
(§1) The minimal inhibitory concentrations (MIC) of peptides were determined using microdilution assay in Müller–Hinton (MH) broth in general accordance with the guidelines of the European Committee for Antimicrobial Susceptibility Testing. Test plates were additionally pretreated with 0.1% bovine serum albumin (BSA) in distilled H2O (incubated for 1 h at 37°C) to reduce possible non-specific binding of peptides to the plastic surface of the wells, as proposed for AMP activity measuring ([Tossi et al., 1997]; [Wiegand et al., 2008]). Two-fold serial dilutions of peptides starting with 2 × stock concentration were prepared in sterile 10 mM sodium phosphate (Na-P) buffer, pH 7.4, with 0.1% BSA. Thus, final solutions contained 50% of Na-P diluted peptide and 50% of MH broth with bacteria. Bacteria for testing were grown overnight, then transferred into a fresh portion of 2.1% MH medium and additionally incubated for 2–3 h to obtain bacterial culture in its mid-logarithmic growth phase, which was diluted down to the final concentration of 1 × 10^6 CFU/ml. Concentration of bacteria in growth medium was calculated based on its absorbance at 620 nm.
After 20 h of incubation of AMPs with bacteria MICs were determined as lowest concentrations of AMPs completely preventing the visible growth of bacteria. Tests were performed in 60-well Terasaki microplates (10 µl end volume, V-shaped bottom; Sarstedt, Germany); dilutions in each test were made in triplicate. Final MIC values were calculated as medians based on the results of 3–5 independent experiments.
Background: In broth dilution the organism is exposed to a series of concentrations in liquid medium.

Series [1] deals with Gram-positive and Gram-negative bacteria. The series is described as follows: Geometric mean of MICs (GMIC) over tested strains. The class given is cell-based. As to conditions: geometric mean of MICs against all tested bacteria. The protocol: as §1
After 20 h of incubation of AMPs with bacteria MICs were determined as lowest concentrations of AMPs completely preventing the visible growth of bacteria. […] Final MIC values were calculated as medians based on the results of 3–5 independent experiments.

A further series in a line: MTT test. Type of series: cell-based. To be noted: human, serum-free RPMI-1640, overnight incubation, mean ± SD of three independent tests, read-out: IC50 of cytotoxic action toward human PBMC. The protocol: Cytotoxic activity of peptides toward various types of eukaryotic cells was assessed using the standard MTT [3-(4,5-Dimethylthiazol-2-yl)-2,5-diphenyltetrazolium bromide] test ([Mosmann, 1983]). Human peripheral blood mononuclear cells (PBMC) were isolated from the peripheral blood of healthy donors. Whole heparinized blood diluted 3-fold with sterile PBS was carefully layered upon the 5 ml of the sterile Ficoll-400 (Pharmacia, Sweden) with a density of 1.077 in a sterile 50 ml conical tube and then centrifuged at 600 g and 4°C for 40 min. The mononuclear “ring” remaining above the Ficoll was collected using a transfer pipette and placed in another tube. Cells were washed twice with sterile PBS, resuspended in RPMI-1640 culture medium and immediately used for the test. Tumor cell lines were purchased from Biolot (Saint Petersburg, Russia) and cultured at 37°C and 5% CO2 in RPMI-1640 medium (Biolot, Saint Petersburg, Russia) supplemented with 10% fetal bovine serum, glutamine, and penicillin-streptomycin combination. For the experiments, cells were washed from the medium they were growing in and resuspended in serum- and antibiotic-free RPMI-1640. Cells were added at not less than 2 × 10^4 per well in sterile flat bottom 96-well microplates containing serial dilutions of tested peptides in RPMI-1640. For the positive control (100% viable cells), RPMI-1640 medium was used instead of the peptide solution, whereas for the negative control (0% viable cells) medium replaced both peptide and cells. Test plates were incubated at 37°C and 5% CO2 overnight, after which MTT metabolic marker in PBS (5 mg/ml) was introduced into each well. After an additional 4 h incubation, the reaction was stopped by adding isopropanol supplemented with 0.04 M HCl, in which the formazan crystals (formed as a result of MTT reduction in presence of metabolically active cells) were dissolved, and OD at 540 nm was measured. Background absorbance at 690 nm was subtracted from the results to countervail any unspecific OD fluctuations. The % of surviving cells was found as:
(2) Survival(%)=(ODsample−OD0% viable)/(OD100% viable−OD0% viable)×100%,
where ODsample, OD0% viable, and OD100% viable are respectively values of the OD at 540 nm minus the OD at 690 nm for the test sample and negative or positive controls. IC50 toxicity values were determined by nonlinear regression analysis of the dose response curves using Sigma Plot 11 (Systat Software Inc., USA). The experiments were repeated three times, with 3 parallels of samples and 4–6 parallels of controls each time.
A general note: Tetrazolium dyes change colour on reduction, which living cells bring about.

The test system of a further series is E. coli ESBL 521/17. On the set-up: key to Susceptibility category: R – resistant; I – intermediate; S – susceptible. To be noted: initial susceptibility testing of the clinical isolate; ref supplying institutions; cited from earlier work.
Another series relates to A. baumannii 7226/16. On the set-up: key to Susceptibility category: R – resistant; I – intermediate; S – susceptible. To be noted: initial susceptibility testing of the clinical isolate; ref supplying institutions; cited from earlier work. From the text: page 1: Supplementary Material Supplementary Table 1. Susceptibility profiles of tested clinical isolates of bacteria. Gram-negative: Gram-positive: antibiotic E. coli A. baumannii P. aeruginosa K. pneumoniae antibiotic S. aureus ESBL 521/17 7226/16 MDR 522/17 ESBL 344/17 1399/17 AMP* R [≥32] R [≥32 ] R [≥32 ] R [≥32] AMP* R [≥32 ] AMC R [16] - - S [≤2] AMC - CTX R [≥64] - - S [≤1] AMX - CAZ R [≥64] - R [≥64] S [≤1] AZM R [≥4] FEP R [≥64] - R [≥64] S [≤1] VAN S [≤2] ATM R [≥64] - - S [≤1] DOX I [2] IPM S [≤1] R [≥16] I [8] S [≤1] CLI I [2] MEM S [≤0.25 ] R [≥32 ] R [≥16] S [≤0.25] MEM I [4] AM ...

The subject of the next series is P. aeruginosa MDR 522/17. On the set-up: key to Susceptibility category: R – resistant; I – intermediate; S – susceptible. As to conditions: initial susceptibility testing of the clinical isolate; ref supplying institutions; cited from earlier work.
The test system of series [2] is K. pneumoniae ESBL 344/17. On the set-up: key to Susceptibility category: R – resistant; I – intermediate; S – susceptible. To be noted: initial susceptibility testing of the clinical isolate; ref supplying institutions; cited from earlier work.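 Also: each antibiotic is scored as S (susceptible), I (intermediate) or R (resistant), with its MIC listed alongside, in a susceptibility profile of the clinical isolate.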
A further series deals with S. aureus 1399/17. On the set-up: key to Susceptibility category: R – resistant; I – intermediate; S – susceptible. As to conditions: initial susceptibility testing of the clinical isolate; ref supplying institutions; cited from earlier work.
The next series deals with U937. The series is described as follows: MTT test. Type of series: cell-based, human. As to conditions: serum-free RPMI-1640, overnight incubation, mean ± SD of three independent tests, read-out: IC50 of cytotoxic action toward U937. On the procedure: Cytotoxic activity of peptides toward various types of eukaryotic cells was assessed using the standard MTT [3-(4,5-Dimethylthiazol-2-yl)-2,5-diphenyltetrazolium bromide] test ([Mosmann, 1983]). Human peripheral blood mononuclear cells (PBMC) were isolated from the peripheral blood of healthy donors. Whole heparinized blood diluted 3-fold with sterile PBS was carefully layered upon the 5 ml of the sterile Ficoll-400 (Pharmacia, Sweden) with a density of 1.077 in a sterile 50 ml conical tube and then centrifuged at 600 g and 4°C for 40 min. The mononuclear “ring” remaining above the Ficoll was collected using a transfer pipette and placed in another tube. Cells were washed twice with sterile PBS, resuspended in RPMI-1640 culture medium and immediately used for the test. Tumor cell lines were purchased from Biolot (Saint Petersburg, Russia) and cultured at 37°C and 5% CO2 in RPMI-1640 medium (Biolot, Saint Petersburg, Russia) supplemented with 10% fetal bovine serum, glutamine, and penicillin-streptomycin combination. For the experiments, cells were washed from the medium they were growing in and resuspended in serum- and antibiotic-free RPMI-1640. Cells were added at not less than 2 × 10^4 per well in sterile flat bottom 96-well microplates containing serial dilutions of tested peptides in RPMI-1640. […] After an additional 4 h incubation, the reaction was stopped by adding isopropanol supplemented with 0.04 M HCl, in which the formazan crystals (formed as a result of MTT reduction in presence of metabolically active cells) were dissolved, and OD at 540 nm was measured. Background absorbance at 690 nm was subtracted from the results to countervail any unspecific OD fluctuations. […]
where ODsample, OD0% viable, and OD100% viable are respectively values of the OD at 540 nm minus the OD at 690 nm for the test sample and negative or positive controls. IC50 toxicity values were determined by nonlinear regression analysis of the dose response curves using Sigma Plot 11 (Systat Software Inc., USA). […]

≈ marks a conversion by molar mass, not a printed value. Ends that are not written are not given here. Peptide text beside a SMILES is read from it.

As to `CC[C@H](C)[C@H](NC(=O)[C@H](CCCNC(=N)N)NC(=O)[C@@H](NC(=O)[C@H](Cc1ccccc1)NC(=O)[C@@H]1CCCN1C(=O)[C@@H]1CCCN1C(=O)[C@@H]1CCCN1C(=O)[C@H](Cc1c[nH]cn1)NC(=O)[C@@H](NC(=O)[C@H](CCCNC(=N)N)NC(=O)[C@H](CCCNC(=N)N)NC(=O)[C@H](Cc1ccccc1)NC(=O)[C@@H]1CCCN1C(=O)[C@H](CC(C)C)NC(=O)[C@H](CCCNC(=N)N)NC(=O)[C@H](Cc1ccccc1)NC(=O)[C@@H](N)CCCNC(=N)N)[C@@H](C)CC)C(C)C)C(=O)N[C@@H](Cc1c[nH]cn1)C(=O)N1CCC[C@H]1C(=O)N1CCC[C@H]1C(=O)N1CCC[C@H]1C(=O)N[C@@H](Cc1ccccc1)C(=O)N[C@@H](Cc1ccc(O)cc1)C(=O)N[C@@H](CCCNC(=N)N)C(=O)N[C@@H](CCCNC(=N)N)C(=O)N[C@@H](Cc1ccccc1)C(=O)N[C@@H](CC(C)C)C(=O)O` [ChBac3.4-1-COOH (rec)] (H-RFRLPFRRIHPPPFVRIHPPPFYRRFL-OH; N-terminus assumed), the MIC (in general, the smallest concentration in the dilution series that meets the test's criterion for growth inhibition) against E. coli ML-35p came to 4 µM (≈ 14.1 µg/mL). Moreover, the GMIC total in series [1] came to 5.0 µM. In addition, the IC50 (commonly the concentration needed to halve the response being measured) in the series “MTT test” turned out to be 40.8 ± 9.1 µM.

Take `CNC(C)C1CCC(N)C(OC2C(N)CC(N)C(OC3OCC(C)(O)C(NC)C3O)C2O)O1` (stereo not shown) [GEN, gentamicin]: the MIC of antibiotic in the series with E. coli ESBL 521/17 is ≤ 1 µg/mL; in the series on A. baumannii 7226/16 it was ≥ 16 µg/mL; with P. aeruginosa MDR 522/17, ≥ 16 µg/mL; in [2] it was ≤ 1 µg/mL; in the series with S. aureus 1399/17, ≥ 32 µg/mL. Further, the Susceptibility category result with E. coli ESBL 521/17 is “S”; in the series with A. baumannii 7226/16, “R”; in the series on P. aeruginosa MDR 522/17 it was “R”; in series [2] it was “S”; in the series on S. aureus 1399/17, “R”.

As to `C[C@@H](O)[C@H]1C(=O)N2C(C(=O)O)=C(S[C@@H]3CN[C@H](C(=O)N(C)C)C3)[C@H](C)[C@H]12` [MEM, meropenem], the MIC of antibiotic is ≤ 0.25 µg/mL with E. coli ESBL 521/17; ≥ 32 µg/mL in the series with A. baumannii 7226/16; ≥ 16 µg/mL with P. aeruginosa MDR 522/17; ≤ 0.25 µg/mL in [2]; 4 µg/mL in the series on S. aureus 1399/17. For the same compound, the Susceptibility category entry in the series with E. coli ESBL 521/17 is “S”; in the series on A. baumannii 7226/16, “R”; in the series on P. aeruginosa MDR 522/17, “R”; in series [2], “S”; in the series with S. aureus 1399/17, “I”.

“RFRLPFRRIHPPPFVRIHPPPFYRRFL-NH2 [ChBac3.4-1-NH2]”: the MIC with E. coli ML-35p is 4 µM. The IC50 in “MTT test” was determined as 12.1 ± 0.8 µM.

For the compound RFRLPFRRPPIRIH-NH2 [ChBac3.4(1-14)-NH2], the MIC in the series with E. coli ML-35p was 8 µM. Besides, the IC50 in the series “MTT test” and with U937 was > 64 µM in each case.

The compound “RFRLPFRRPPIRIHPPPFY-NH2 [ChBac3.4(1-19)-NH2]” had an MIC in the series with E. coli ML-35p of 4 µM. Also, the IC50 in the series “MTT test” and with U937 was > 64 µM each time.
